Data from ChEMBL document CHEMBL3885881, “DrugMatrix”.

Species: Rattus norvegicus
Assay: DrugMatrix - Regimen: Daily Repeat
Format: toxicity, organism-based, Sprague-Dawley
Parameters: regimen Daily Repeat, gender Male, age 6-8 weeks
Settings: in vivo, po, route oral GAVAGE, vehicle .5 % CMC; for ABSOLUTE BASOPHIL / ABSOLUTE EOSINOPHIL / ABSOLUTE LYMPHOCYTE / ABSOLUTE MONOCYTE / ABSOLUTE SEGMENTED NEUTROPHIL / BASOPHIL / EOSINOPHIL / ERYTHROCYTE COUNT / HEMATOCRIT / HEMOGLOBIN / LEUKOCYTE COUNT / LYMPHOCYTE / MEAN CORPUSCULAR HEMOGLOBIN / MEAN CORPUSCULAR HEMOGLOBIN CONCENTRATION / MEAN CORPUSCULAR VOLUME / MONOCYTE / NEUTROPHIL / NUCLEATED RED BLOOD CELLS / PLATELET COUNT: tissue Blood; for ALANINE AMINOTRANSFERASE / ALBUMIN / ALKALINE PHOSPHATASE / ASPARTATE AMINOTRANSFERASE / BLOOD UREA NITROGEN / CARBON DIOXIDE / CHLORIDE / CHOLESTEROL / CREATINE PHOSPHOKINASE / CREATININE / GLUCOSE / LACTATE DEHYDROGENASE / LIPASE / PHOSPHORUS / POTASSIUM / SODIUM / TOTAL BILIRUBIN / TOTAL PROTEIN / URIC ACID: tissue Plasma
[1] = 0 mg/kg, 72 h, dose level Control, time 3 day
[2] = 0 mg/kg, 120 h, dose level Control, time 5 day
[3] = 50 mg/kg, 72 h, dose level Low, time 3 day

CN(C)[C@@H]1C(O)=C(C(N)=O)C(=O)[C@@]2(O)C(O)=C3C(=O)c4c(O)ccc(Cl)c4[C@@](C)(O)[C@H]3C[C@@H]12 [CHLORTETRACYCLINE]
ABSOLUTE BASOPHIL [1]: 0 CELLS/uL
ABSOLUTE EOSINOPHIL [1]: 32.5 CELLS/uL
ABSOLUTE LYMPHOCYTE [1]: 13494.17 CELLS/uL
ABSOLUTE MONOCYTE [1]: 474 CELLS/uL
ABSOLUTE SEGMENTED NEUTROPHIL [1]: 1932.67 CELLS/uL
BASOPHIL [1]: 0%
EOSINOPHIL [1]: 0.17%
ERYTHROCYTE COUNT [1]: 5.45 x10E6/uL
HEMATOCRIT [1]: 34.32%
HEMOGLOBIN [1]: 13.82 G/DL
LEUKOCYTE COUNT [1]: 15.93 x10E3/uL
LYMPHOCYTE [1]: 84.83%
MEAN CORPUSCULAR HEMOGLOBIN [1]: 25.38 pg
MEAN CORPUSCULAR HEMOGLOBIN CONCENTRATION [1]: 40.27 G/DL
MEAN CORPUSCULAR VOLUME [1]: 63.05 fL
MONOCYTE [1]: 3%
NEUTROPHIL [1]: 12%
NUCLEATED RED BLOOD CELLS [1]: 0.67 /100WBC
PLATELET COUNT [1]: 1188.5 x10E3/uL
ALANINE AMINOTRANSFERASE [1]: 54.83 u/L
ALBUMIN [1]: 4.22 G/DL
ALKALINE PHOSPHATASE [1]: 427.67 u/L
ASPARTATE AMINOTRANSFERASE [1]: 86.5 u/L
BLOOD UREA NITROGEN [1]: 15.33 mg/dL
CARBON DIOXIDE [1]: 24.83 mmol/L
CHLORIDE [1]: 102.33 MEQ/L
CHOLESTEROL [1]: 71.67 mg/dL
CREATINE PHOSPHOKINASE [1]: 442.5 u/L
CREATININE [1]: 0.19 mg/dL
GLUCOSE [1]: 160.67 mg/dL
LACTATE DEHYDROGENASE [1]: 236.5 u/L
LIPASE [1]: 9 u/L
PHOSPHORUS [1]: 11.97 mg/dL
POTASSIUM [1]: 6.2 MEQ/L
SODIUM [1]: 142.85 MEQ/L
TOTAL BILIRUBIN [1]: 0.2 mg/dL
TOTAL PROTEIN [1]: 5.8 G/DL
URIC ACID [1]: 1.3 mg/dL
ABSOLUTE BASOPHIL [2]: 0 CELLS/uL
ABSOLUTE EOSINOPHIL [2]: 114.5 CELLS/uL
ABSOLUTE LYMPHOCYTE [2]: 14614 CELLS/uL
ABSOLUTE MONOCYTE [2]: 173 CELLS/uL
ABSOLUTE SEGMENTED NEUTROPHIL [2]: 1048.5 CELLS/uL
BASOPHIL [2]: 0%
EOSINOPHIL [2]: 0.67%
ERYTHROCYTE COUNT [2]: 5.66 x10E6/uL
HEMATOCRIT [2]: 35.52%
HEMOGLOBIN [2]: 14.27 G/DL
LEUKOCYTE COUNT [2]: 15.95 x10E3/uL
LYMPHOCYTE [2]: 91.33%
MEAN CORPUSCULAR HEMOGLOBIN [2]: 25.23 pg
MEAN CORPUSCULAR HEMOGLOBIN CONCENTRATION [2]: 40.2 G/DL
MEAN CORPUSCULAR VOLUME [2]: 62.7 fL
MONOCYTE [2]: 1.17%
NEUTROPHIL [2]: 6.83%
NUCLEATED RED BLOOD CELLS [2]: 0.33 /100WBC
PLATELET COUNT [2]: 1229 x10E3/uL
ALANINE AMINOTRANSFERASE [2]: 58.67 u/L
ALBUMIN [2]: 4.32 G/DL
ALKALINE PHOSPHATASE [2]: 382.5 u/L
ASPARTATE AMINOTRANSFERASE [2]: 81.67 u/L
BLOOD UREA NITROGEN [2]: 17.67 mg/dL
CARBON DIOXIDE [2]: 27.17 mmol/L
CHLORIDE [2]: 102.33 MEQ/L
CHOLESTEROL [2]: 63.67 mg/dL
CREATINE PHOSPHOKINASE [2]: 227.67 u/L
CREATININE [2]: 0.23 mg/dL
GLUCOSE [2]: 155.33 mg/dL
LACTATE DEHYDROGENASE [2]: 146.5 u/L
LIPASE [2]: 10.67 u/L
PHOSPHORUS [2]: 11.93 mg/dL
POTASSIUM [2]: 6.85 MEQ/L
SODIUM [2]: 143.95 MEQ/L
TOTAL BILIRUBIN [2]: 0.18 mg/dL
TOTAL PROTEIN [2]: 6.02 G/DL
URIC ACID [2]: 1.63 mg/dL
ABSOLUTE BASOPHIL [3]: 0 CELLS/uL
ABSOLUTE EOSINOPHIL [3]: 126.67 CELLS/uL
ABSOLUTE LYMPHOCYTE [3]: 10511.33 CELLS/uL
ABSOLUTE MONOCYTE [3]: 344.33 CELLS/uL
ABSOLUTE SEGMENTED NEUTROPHIL [3]: 817.67 CELLS/uL
BASOPHIL [3]: 0%
EOSINOPHIL [3]: 1%
ERYTHROCYTE COUNT [3]: 5.49 x10E6/uL
HEMATOCRIT [3]: 34.47%
HEMOGLOBIN [3]: 13.47 G/DL
LEUKOCYTE COUNT [3]: 11.8 x10E3/uL
LYMPHOCYTE [3]: 89%
MEAN CORPUSCULAR HEMOGLOBIN [3]: 24.57 pg
MEAN CORPUSCULAR HEMOGLOBIN CONCENTRATION [3]: 39.13 G/DL
MEAN CORPUSCULAR VOLUME [3]: 62.87 fL
MONOCYTE [3]: 3%
NEUTROPHIL [3]: 7%
NUCLEATED RED BLOOD CELLS [3]: 0 /100WBC
PLATELET COUNT [3]: 1083.33 x10E3/uL
ALANINE AMINOTRANSFERASE [3]: 50.33 u/L
ALBUMIN [3]: 4.07 G/DL
ALKALINE PHOSPHATASE [3]: 403.67 u/L
ASPARTATE AMINOTRANSFERASE [3]: 84.67 u/L
BLOOD UREA NITROGEN [3]: 16.67 mg/dL
CARBON DIOXIDE [3]: 26 mmol/L
CHLORIDE [3]: 103.67 MEQ/L
CHOLESTEROL [3]: 73.33 mg/dL
CREATINE PHOSPHOKINASE [3]: 273.67 u/L
CREATININE [3]: 0.15 mg/dL
GLUCOSE [3]: 157.67 mg/dL
LACTATE DEHYDROGENASE [3]: 157.33 u/L
LIPASE [3]: 9.33 u/L
PHOSPHORUS [3]: 12.13 mg/dL
POTASSIUM [3]: 6.6 MEQ/L
SODIUM [3]: 146.1 MEQ/L
TOTAL BILIRUBIN [3]: 0.2 mg/dL
TOTAL PROTEIN [3]: 5.67 G/DL
URIC ACID [3]: 1.77 mg/dL
